Test results from ChEMBL document CHEMBL1126639, “Centrally acting serotonergic and dopaminergic agents. 2. Synthesis and structure-activity relationships of 2,3,3a,4,9,9a-hexahydro-1H-benz[f]indole derivatives” (J Med Chem, 1993).
“And” between values parts separate entries of the source, which are not always exact repeats. Identical values can stand only once. The source made the active and inactive calls. The rule behind the calls is not given here.

How the values were obtained:
D(2) dopamine receptor [1] = target: T1, D(2) dopamine receptor (Rattus norvegicus, UniProt P61169); assay: Binding affinity for [3H]raclopride-labeled dopamine receptor D2 in rat striatum; type: tissue-based
T1 sequence (P61169 whole entry): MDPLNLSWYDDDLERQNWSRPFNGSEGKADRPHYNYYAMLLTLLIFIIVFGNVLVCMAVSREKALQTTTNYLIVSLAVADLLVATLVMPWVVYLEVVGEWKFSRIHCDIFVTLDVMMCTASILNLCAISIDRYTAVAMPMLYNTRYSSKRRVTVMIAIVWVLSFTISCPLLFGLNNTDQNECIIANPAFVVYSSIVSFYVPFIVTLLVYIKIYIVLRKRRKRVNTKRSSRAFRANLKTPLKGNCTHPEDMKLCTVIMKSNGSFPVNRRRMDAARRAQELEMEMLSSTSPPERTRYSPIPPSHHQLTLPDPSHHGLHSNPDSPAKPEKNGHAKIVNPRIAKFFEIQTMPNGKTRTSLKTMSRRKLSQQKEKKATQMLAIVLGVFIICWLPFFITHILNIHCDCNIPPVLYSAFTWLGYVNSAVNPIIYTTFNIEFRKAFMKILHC

D(2) dopamine receptor [2] = target: T1, D(2) dopamine receptor; assay: Inhibitory concentration against [3H]raclopride-labeled dopamine receptor D2 in rat striatum; type: tissue-based
Mus musculus [3] = assay: Maximum decrease in temperature when compound is administered through peroral route; type: functional
Mus musculus [4] = assay: Time of effect in the face-to-face behavioral assay in the mouse when a dose of 34 micro mol/kg is administered perorally; type: functional
Mus musculus [5] = assay: Time of effect in the face-to-face behavioral assay in the mouse when a dose of 3.4 micro mol/kg is administered perorally; type: functional
Mus musculus [6] = assay: Time of effect in the isolation-induced aggression behavioral assay in the mouse when a dose of 10 micro mol/kg is administered perorally; type: functional
Mus musculus [7] = assay: Maximum decrease in temperature when compound is administered subcutaneously; type: functional
Mus musculus [8] = assay: Time of effect in the face-to-face behavioral assay in the mouse when a dose of 0.3 micro mol/kg is administered perorally; type: functional
Mus musculus [9] = assay: Effective dose on hypothermia in mouse when administered subcutaneously; type: functional; details: Mus musculus, sc; read-out: ED50
Mus musculus [10] = assay: Effective dose on hypothermia in mouse when administered through peroral route; type: functional; details: Mus musculus, po; read-out: ED50
Mus musculus [11] = assay: Time of effect in the face-to-face behavioral assay in the mouse when a dose of 0.0 micro mol/kg is administered perorally; type: functional
D(2) dopamine receptor [12] = target: T1, D(2) dopamine receptor; assay: Compound was evaluated for the binding affinity against [3H]raclopride-labeled dopamine receptor D2 in rat striatum; type: tissue-based
Mus musculus [13] = assay: Time of effect in the isolation-induced aggression behavioral assay in the mouse when a dose of 3.4 micro mol/kg is administered perorally; type: functional
D(2) dopamine receptor [14] = target: D(2) dopamine receptor (Homo sapiens, UniProt P14416); assay: Intrinsic activity from GTP shift using CHO cell membranes expressing dopamine receptor D2; type: functional
D(2) dopamine receptor (Homo sapiens, UniProt P14416), sequence (P14416 whole entry): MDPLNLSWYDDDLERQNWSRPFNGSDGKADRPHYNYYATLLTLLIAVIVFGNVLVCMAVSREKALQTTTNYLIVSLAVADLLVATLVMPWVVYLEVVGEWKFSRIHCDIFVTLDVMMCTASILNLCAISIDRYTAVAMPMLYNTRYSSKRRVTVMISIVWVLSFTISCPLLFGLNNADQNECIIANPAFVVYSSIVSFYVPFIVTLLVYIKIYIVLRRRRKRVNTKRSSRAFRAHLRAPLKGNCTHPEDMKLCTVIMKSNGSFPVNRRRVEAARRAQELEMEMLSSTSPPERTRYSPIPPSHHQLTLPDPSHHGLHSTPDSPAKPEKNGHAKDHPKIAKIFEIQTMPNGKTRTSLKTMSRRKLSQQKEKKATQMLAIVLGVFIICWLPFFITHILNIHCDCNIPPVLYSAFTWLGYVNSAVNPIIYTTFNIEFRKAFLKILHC

[15] = target: Sodium-dependent dopamine transporter (Rattus norvegicus) (UniProt P23977); assay: Inhibition of firing rates of dopaminergic neurons in the substantia nigra pars compacta by intravenous injection in rats; type: functional, tissue-based
Sodium-dependent dopamine transporter (Rattus norvegicus), sequence (P23977 whole entry): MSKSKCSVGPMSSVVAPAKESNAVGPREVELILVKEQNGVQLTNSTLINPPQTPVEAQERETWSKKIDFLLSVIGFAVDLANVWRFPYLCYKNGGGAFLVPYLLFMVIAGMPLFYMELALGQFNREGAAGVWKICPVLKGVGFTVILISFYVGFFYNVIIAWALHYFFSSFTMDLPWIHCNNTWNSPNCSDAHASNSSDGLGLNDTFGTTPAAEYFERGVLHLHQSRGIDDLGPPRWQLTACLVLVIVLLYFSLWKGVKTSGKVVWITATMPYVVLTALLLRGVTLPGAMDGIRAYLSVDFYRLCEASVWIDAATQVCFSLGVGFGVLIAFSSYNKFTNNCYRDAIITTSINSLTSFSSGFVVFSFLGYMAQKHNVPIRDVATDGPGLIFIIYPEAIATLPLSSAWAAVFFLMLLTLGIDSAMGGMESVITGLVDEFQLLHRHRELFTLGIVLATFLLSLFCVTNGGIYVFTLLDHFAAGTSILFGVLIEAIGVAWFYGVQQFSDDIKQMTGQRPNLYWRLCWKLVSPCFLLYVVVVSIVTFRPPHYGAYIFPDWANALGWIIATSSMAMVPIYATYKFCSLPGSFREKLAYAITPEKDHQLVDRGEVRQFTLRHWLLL

Felis catus = assay: Effective dose at which the sympathetic nerve activity (SND) has been reduced to 50% of the pretreatment value in anesthetized cat; In active; type: functional, organism-based
Mus musculus [16] = organism: Mus musculus; assay: Time of effect in the face-to-face behavioral assay in the mouse […]; type: functional
Mus musculus [17] = assay: Time of effect in the face-to-face behavioral assay in the mouse when a dose of 5.4 micro mol/kg is administered subcutaneously; type: functional
Mus musculus [18] = assay: Time of effect in the face-to-face behavioral assay in the mouse when a dose of 54 micro mol/kg is administered subcutaneously; type: functional

In the case of `COc1cccc2c1C[C@H]1CCN(Cc3ccccc3)[C@@H]1C2` (racemic), the Ki (D(2) dopamine receptor [1]) is reported as > 10000 nM.

With `COc1cccc2c1C[C@H]1CCN[C@H]1C2` (racemic) the IC50 (D(2) dopamine receptor [2]) was > 1000 nM.

For `COc1cccc2c1C[C@H]1CCN(CC3CC3)[C@@H]1C2` (racemic), the Max temperature decrease (Mus musculus [3]) was 6.2, the Time (Mus musculus [4]) was 1.5 s and the Time (Mus musculus [5]) was 1.6 s. For the same compound, the Time (Mus musculus [6]) was 177 s, the Max temperature decrease (Mus musculus [7]) was 7 and the Time (Mus musculus [8]) was 0.9 s. It also gave an ED50 (Mus musculus [9]) of 19 µmol/kg, an ED50 (Mus musculus [10]) of 25 µmol/kg and a Time (Mus musculus [11]) of 1 s. The Ki (D(2) dopamine receptor [12]) was > 1000 nM and the Time (Mus musculus [13]) was 58 s.

`COc1cccc2c1C[C@H]1CCN(CC3CC3)[C@H]1C2` (racemic) gave a Ki (D(2) dopamine receptor [1]) of 748 nM.

Work on `COc1cccc2c1C[C@H]1CCN(Cc3ccccc3)[C@H]1C2` (racemic) yielded a Ki (D(2) dopamine receptor [1]) of 465 nM.

`COc1cccc2c1C[C@H]1CCN[C@@H]1C2` (racemic) was tested, and the Max temperature decrease (Mus musculus [7]) was 6.2, the IC50 (D(2) dopamine receptor [2]) was > 1000 nM and the ED50 (Mus musculus [9]) was 1.7 µmol/kg. For the same compound, the ED50 (Mus musculus [10]) was > 125 µmol/kg.

For `CCCN1CC[C@@H]2Cc3c(O)cccc3C[C@@H]21` (racemic), the Intrinsic activity (D(2) dopamine receptor [14]) was 61%.

Compound `C=CCN1CC[C@@H]2Cc3c(O)cccc3C[C@H]21` (racemic) has an Intrinsic activity (D(2) dopamine receptor [14]) of 91%.

`C=CCN1CC[C@@H]2Cc3c(cccc3OC)C[C@H]21` (racemic) was tested, and the ED50 [15] was > 10.7 µmol/kg and 6.8 µmol/kg and the ED50 (Felis catus) was “inactive”.

With `CCCN1CC[C@@H]2Cc3c(O)cccc3C[C@H]21` (racemic) the Intrinsic activity (D(2) dopamine receptor [14]) was 79%.

With `CC(N)Cc1ccccc1.O=S(=O)(O)O` (configuration not stated) [AMPHETAMINE SULFATE] the Time (Mus musculus [16]) was 2.6 s, the Time (Mus musculus [17]) was 2.4 s and the Time (Mus musculus [18]) was 2.9 s.
